In patent US10584127B2, “3,3-difluoropiperidine carbamate heterocyclic compounds as NR2B NMDA receptor antagonists” (Rugen Holdings (Cayman) Limited, priority 2015, dated 2020):

Columns and labels:
cloned human NR1/NR2A = cloned human NR1/NR2A (Homo sapiens (Human), UniProt Q12879); experiment: NR2A antagonist activity, Fluo-4 calcium influx in HEK293 cells; assay type: cell-based; conditions: glutamate 100 μM, glycine 50 μM
Method: Activation of the NR2A or NR2B subtype of NMDA receptor with glutamate as an agonist and glycine co-agonist on these cells results in calcium influx, which can be monitored with fluorescent indicator Fluo-4.
For experiments, the cells were seeded onto poly-D-lysine-coated 96-well black plates with clear bottom (Corning) at a density of ^˜50,000 cells/well. After overnight culture, the growth medium was removed from the wells and the cells were incubated at 37° C. for 60 min in Hanks buffer containing 4 μM fluo-4-AM (Invitrogen) and 0.1% bovine serum albumin (BSA). After dye-loading, the cells were washed three times with Hanks buffer and incubated for 10 min at room temperature with various concentrations of test compounds prepared in Hanks buffer with 0.1% BSA. The cell plates were placed onto FDSS μCell fluorescence reader (Hamamatsu). After 20 sec reading of background fluorescence, agonist glutamate at final 100 μM and co-agonist glycine at final 50 μM were added to the cells to activate the receptor, and the resulting fluorescence changes were recorded and quantified. Based on the changes in fluorescence intensity, the pharmacological effect of test compounds were analyzed and the IC50 values derived from a non-linear least squares fitting of the concentration-dependent response to a standard logistic equation using Prism (Graphpad, Inc): Amplitude=Max Amplitude/(1+(IC50/[antagonist])^n).

[1] = system: KCl-induced cortical spreading depression; experiment: Cortical spreading depression (CSD), aura phase of migraine model; assay type: in vivo; conditions: rats, mesylate salt
Method: The cortical spreading depression model is utilized to investigate whether treatment with compounds of the present invention affect electrophysiological and hemodynamic events in a rat model of migraine.
Rats were anesthetized with 5% isoflurane (in 70% N2O and 30% O2; flow 300 ml/min) and placed in a stereotactic frame. […] The rectal temperature was maintained at 37.0±1.0° C. with a homeothermic blanket system. The skin was opened by a medial incision and retracted laterally. Three burr holes were drilled under saline cooling over the right hemisphere at the following coordinates (mm from bregma): (1) posterior 4.5, lateral, 2.0 (occipital cortex): KCl application site; (2) posterior 0.5, lateral 2.0 (parietal cortex): LDF recording site; (3) anterior 2, lateral 2 (frontal cortex): DC potential recording site. A laser-Doppler flow probe (Oxyflow, Oxford Optronics, UK) to monitor CBF and an invasive Ag/AgCl electrode for measuring direct current (DC) potential shifts were placed in the parietal and frontal cortex burr holes on the intact dura and in the cortex, respectively. The laser-Doppler flow probe was positioned in an area free of large pial and dural vessels to minimize a large-vessel contribution to the signal. For the DC-potential measurement, a reference electrode was fixed in the neck. Dura overlying the occipital cortex was gently removed and care was taken to avoid bleeding. After surgical preparation, the cortex was allowed to recover for 15 minutes under saline irrigation. A cotton ball (2 mm diameter) soaked with 1M KCl was placed on the pial surface and kept moist by placing 5 μl of KCl solution every 15 minutes. Test compound or vehicle was administered ten (10) minutes prior to CSD initiation. […] The number of KCl-induced CSDs was counted for 2 hours. The CBF and DC-potentials were monitored continuously starting from 5 minutes before KCl exposure.
Test compound E1-1.2 was administered as a mesylate salt (mpk based on molecular weight of the mesylate salt).
The data was collected in Windaq acquisition software (Dataq Instruments, USA) at 20 kHz. The raw data was analyzed in Clampfit program (Axon Instruments, USA). The signals were low pass filtered (cut off range 5-10000 Hz) that CSD episodes in DC and CBF could be confirmed. The following parameters were analyzed: i) the number, duration and amplitude of DC-potentials, and ii) the number and amplitude of CBF events.
Doses were given as milligram per kilogram (mpk). […] Bars represent mean±Standard Error of Mean (SEM), and differences were considered to be statistically significant at the P<0.05 level (n=8, * different from vehicle group). Statistical analysis was performed using StatsDirect statistical software. Differences between groups were analyzed by using 1-way ANOVA and Dunnett's post hoc test.

[2] = system: pentylenetetrazole-induced convulsions; experiment: Pentylenetetrazole (PTZ) Seizure Test; assay type: in vivo, rats; conditions: 10 mg/kg p.o., mesylate salt, PTZ 100 mg/kg s.c.
Method: Rats, placed in individual macrolon cages (25×19×13 cm), were injected with pentylenetetrazole (PTZ) (100 mg/kg s.c.). The occurrence and latency of clonic and tonic convulsions and death were noted over a 30 minute period. 15 rats were studied per group. The test was performed blind.
Test compound E1-8.2 was administered as the free base.
Compounds were evaluated typically using 0.5% dimethylsulfoxide, 4% hydroxypropyl-b-cyclodextrin water as a vehicle at 1 or more doses (e.g., 1, 3 and 10 mg/kg), administered p.o. 30 minutes before PTZ, and compared with a vehicle control group. Diazepam (16 mg/kg p.o.), administered 60 minutes before PTZ, was used as reference substance. The experiment was performed over 2 separate sub-experiments with N=7 to 8 animals per group and per sub-experiment. Quantitative data (latencies) with the test substance was analyzed by comparing treated groups with vehicle control using Kruskal-Wallis test followed by Mann-Whitney U test. Quantitative data with the reference substance was analyzed using Mann-Whitney U test. Quantal data (frequencies) was analyzed by comparing treated groups with vehicle control using Fisher's Exact Probability tests (*=p<0.05; **=p<0.01; ***=p<0.001).

[3] = system: NMDA receptor (all subtypes), native rat brain receptors; experiment: [3H] MK-801 radioligand binding assay, rat brain membranes; conditions: 2 nM [3H] MK-801, rat brain membranes
Method: This example describes NMDA receptor binding assays using two different radioligands, [^3H] […] An established binding assay using the non-selective NMDA receptor ligand [^3H] […] The binding assay method using the NR2B selective receptor ligand [^3H] […] This assay serves as a selective measure of NR2B receptor binding activity in native rat brain receptors. Briefly, the brains of Male Wistar rats were homogenized (Polytron) before centrifugation at 40,000×g for 15 minutes at 4° C. After 2 washes, the final pellet was homogenized and stored at −80° C. The protein concentration was determined by Bradford assay.
Test compounds were solubilized at 10 mM in DMSO. Then the dilutions were performed with a constant solvent concentration (1% DMSO) in the assay.
After incubation for 4.5 h at room temperature, the assays were filtered on GF/B filters pretreated with 0.3% (v/v) PEI with a Brandel system for [^3H] […] The experiment was performed in duplicate (n=2).

cloned human NR1/NR2A, sequence (Q12879 23-1464, other chains not shown): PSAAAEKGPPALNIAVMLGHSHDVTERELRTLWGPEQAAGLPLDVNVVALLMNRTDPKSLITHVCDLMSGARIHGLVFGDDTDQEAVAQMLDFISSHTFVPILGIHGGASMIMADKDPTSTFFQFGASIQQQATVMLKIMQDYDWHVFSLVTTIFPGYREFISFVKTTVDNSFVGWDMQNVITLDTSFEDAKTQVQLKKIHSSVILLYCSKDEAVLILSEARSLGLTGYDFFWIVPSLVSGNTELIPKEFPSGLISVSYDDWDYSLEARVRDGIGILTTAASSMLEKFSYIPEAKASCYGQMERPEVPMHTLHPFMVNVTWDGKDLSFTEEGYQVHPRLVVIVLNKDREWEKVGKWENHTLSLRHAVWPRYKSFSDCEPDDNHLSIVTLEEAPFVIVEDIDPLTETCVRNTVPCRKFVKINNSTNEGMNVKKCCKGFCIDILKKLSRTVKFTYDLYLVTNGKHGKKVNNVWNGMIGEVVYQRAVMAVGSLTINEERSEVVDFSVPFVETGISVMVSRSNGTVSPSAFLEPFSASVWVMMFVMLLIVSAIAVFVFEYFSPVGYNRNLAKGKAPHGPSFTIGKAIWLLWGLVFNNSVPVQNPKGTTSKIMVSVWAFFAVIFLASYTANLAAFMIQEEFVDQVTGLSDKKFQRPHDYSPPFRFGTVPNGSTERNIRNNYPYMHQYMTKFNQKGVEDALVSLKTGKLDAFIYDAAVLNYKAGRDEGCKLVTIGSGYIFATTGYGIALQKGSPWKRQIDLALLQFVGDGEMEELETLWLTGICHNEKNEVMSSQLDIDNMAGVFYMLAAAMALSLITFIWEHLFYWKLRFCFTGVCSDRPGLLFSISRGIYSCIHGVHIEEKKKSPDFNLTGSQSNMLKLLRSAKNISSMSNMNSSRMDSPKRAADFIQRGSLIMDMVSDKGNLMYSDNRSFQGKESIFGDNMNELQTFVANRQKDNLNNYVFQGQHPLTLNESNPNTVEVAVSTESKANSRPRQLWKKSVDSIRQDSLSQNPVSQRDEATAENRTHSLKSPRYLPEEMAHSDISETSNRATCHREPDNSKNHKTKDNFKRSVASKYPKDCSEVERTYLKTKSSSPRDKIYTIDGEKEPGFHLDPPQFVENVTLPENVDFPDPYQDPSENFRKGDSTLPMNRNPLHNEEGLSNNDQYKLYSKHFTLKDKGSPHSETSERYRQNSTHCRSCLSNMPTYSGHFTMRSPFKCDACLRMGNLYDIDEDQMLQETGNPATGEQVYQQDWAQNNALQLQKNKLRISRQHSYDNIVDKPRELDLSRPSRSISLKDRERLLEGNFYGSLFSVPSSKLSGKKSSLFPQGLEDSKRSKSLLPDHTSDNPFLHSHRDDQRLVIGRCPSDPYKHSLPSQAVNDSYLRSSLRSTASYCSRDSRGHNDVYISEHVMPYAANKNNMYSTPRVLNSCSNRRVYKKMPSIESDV

Cc1ccc(COC(=O)N2CC[C@H](CNc3nccn4cnnc34)C(F)(F)C2)cc1 [Compound E1-1.2, (+)-R-4-methylbenzyl 4-(([1,2,4]triazolo[4,3-a]pyrazin-8-ylamino)methyl)-3,3-difluoropiperidine-1-carboxylate]
IC50 (cloned human NR1/NR2A): > 10 µM
number of CBF events vs vehicle ([1]; 10 mg/kg): decreased
number of DC potentials vs vehicle group ([1]; 3 mpk, 10 mpk and 30 mpk): significantly decreased
magnitude of CBF vs vehicle [1]: unchanged
amplitude of DC potentials vs vehicle ([1]; various doses): not statistically different
duration of DC potentials vs vehicle ([1]; various doses): not statistically different
latency to death, change vs vehicle controls [2]: +35%
number of deaths, change vs vehicle controls [2]: −91%
partial effect on [3H] MK-801 binding [3]: 40%
